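Test compounds were applied to cells in 96-well plates for 48 hours at 5 doses. GI50: concentration for 50% inhibition of growth.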 Active and inactive are the calls of the source. Rule as the data show it: active = GI50 up to about 1.1 µM and inactive = higher.
Experiments:
Assay in all cases: NCI anticancer screen, dose series, 48 h
A549 = test system: A549
COLO 205 = test system: COLO 205
EKVX = test system: EKVX
HCT-15 = test system: HCT-15
HOP-62 = test system: HOP-62
HT-29 = test system: HT-29
KM12 = test system: KM12
LOX IMVI = test system: LOX IMVI
M14 = test system: M14
NCI-H522 = test system: NCI-H522
OVCAR-3 = test system: OVCAR-3
OVCAR-4 = test system: OVCAR-4
RXF 393 = test system: RXF 393
SF-295 = test system: SF-295
SK-MEL-28 = test system: SK-MEL-28
SN12C = test system: SN12C
SNB-19 = test system: SNB-19
SNB-75 = test system: SNB-75
SW-620 = test system: SW-620
UO-31 = test system: UO-31

SMILES	GI50 (A549)	GI50 (COLO 205)	GI50 (EKVX)	GI50 (HCT-15) [µM]	GI50 (HOP-62)	GI50 (HT-29)	GI50 (KM12)	GI50 (LOX IMVI)	GI50 (M14)	GI50 (NCI-H522)	GI50 (OVCAR-3)	GI50 (OVCAR-4)	GI50 (RXF 393)	GI50 (SF-295)	GI50 (SK-MEL-28)	GI50 (SN12C)	GI50 (SNB-19)	GI50 (SNB-75)	GI50 (SW-620)	GI50 (UO-31)
Brc1cccc(Nc2ncnc3sc4c(c23)CCC(Nc2cccc(Br)c2)C4)c1 (stereo not given)	> 100 µM (inactive)	> 100 µM (inactive)	> 100 µM (inactive)	> 100	> 100 µM (inactive)	> 100 µM (inactive)	> 100 µM (inactive)	> 100 µM (inactive)	> 100 µM (inactive)	> 100 µM (inactive)	> 100 µM (inactive)	> 100 µM (inactive)	> 100 µM (inactive)	> 100 µM (inactive)	> 100 µM (inactive)	> 100 µM (inactive)	> 100 µM (inactive)	65.9 µM (inactive)	> 100 µM (inactive)	> 100 µM (inactive)
Nc1nnc(CCC(=O)Nc2cc(Cl)ccc2Cl)n1N	> 100 µM (inactive)	> 100 µM (inactive)	> 100 µM (inactive)	> 100	> 100 µM (inactive)	> 100 µM (inactive)	> 100 µM (inactive)	> 100 µM (inactive)	> 100 µM (inactive)	> 100 µM (inactive)	> 100 µM (inactive)	> 100 µM (inactive)	> 100 µM (inactive)	> 100 µM (inactive)	> 100 µM (inactive)	> 100 µM (inactive)	> 100 µM (inactive)	> 100 µM (inactive)	> 100 µM (inactive)	> 100 µM (inactive)
CCOc1c(/N=N/c2ccccc2Cl)c(-c2ccccc2)nn1C(=S)S	33.2 µM (inactive)	21.4 µM (inactive)	30.9 µM (inactive)	23.1	> 100 µM (inactive)	25.2 µM (inactive)	33 µM (inactive)	19.9 µM (inactive)	47.9 µM (inactive)	25.2 µM (inactive)	25 µM (inactive)	48.4 µM (inactive)	39.9 µM (inactive)	33.6 µM (inactive)	> 100 µM (inactive)	9.06 µM (inactive)	> 100 µM (inactive)	> 100 µM (inactive)	46.6 µM (inactive)	35.6 µM (inactive)
CN(C)c1ccc(/C=C/C(=O)N[C@@H]2C(=O)N3[C@@H]2SC(C)(C)[C@@H]3C(=O)O)cc1	> 100 µM (inactive)	> 100 µM (inactive)	> 100 µM (inactive)	> 100	> 100 µM (inactive)	> 100 µM (inactive)	> 100 µM (inactive)	> 100 µM (inactive)	> 100 µM (inactive)	> 100 µM (inactive)	> 100 µM (inactive)	> 100 µM (inactive)	> 100 µM (inactive)	> 100 µM (inactive)	> 100 µM (inactive)	> 100 µM (inactive)	> 100 µM (inactive)	> 100 µM (inactive)	> 100 µM (inactive)	> 100 µM (inactive)

Source: ChEMBL document CHEMBL1201862, “PubChem BioAssay data set” (2004)
